Laboratory results as given in article PMC6471532, “Drug Transport across Porcine Intestine Using an Ussing Chamber System: Regional Differences and the Effect of P-Glycoprotein and CYP3A4 Activity on Drug Absorption” (Pharmaceutics, 2019).
Converted amounts (≈) assume the structure as drawn.

Columns and labels:
[1] = system: human jejunum; conditions: cited from earlier work; for Peff,human^b In Vivo: Loc-I-Gut with physiological estimates of the surface area for absorption; for Peff,human^a In Vivo: Loc-I-Gut, jejunal segment, cylindrical surface area
[2] = system: viable porcine intestine (jejunum); assay: Passive absorption across viable porcine intestine (jejunum) ex vivo, Ussing chamber, from KBR and biorelevant media; conditions: for QDEP FeSSIF V2 / QDEP FaSSIF V2 / QDEP KBR: amount deposited in intestine at 2 h as % of donor; for QPERM FaSSIF V2 / QPERM FeSSIF V2 / QPERM KBR: amount permeated at 2 h as % of donor
[3] = Solubility in KBR, FaSSIF V2 and FeSSIF V2
[4] = source not given; cited from earlier work
[5] = Passive absorption across viable porcine intestine (jejunum) ex vivo, Ussing chamber, from KBR and biorelevant media; conditions: female, Swiss noble, pig
[6] = system: CYP3A4; assay: in vitro; conditions: female, Swiss noble, pig, jejunum, 100 µM in KBR
[7] = system: CYP3A4; conditions: jejunum
[8] = Segmental drug permeation across porcine duodenum, jejunum, ileum and colon, Ussing chamber; type: in vitro ADME, pig; conditions: female, Swiss noble, pig, 100 µM in KBR
[9] = system: porcine duodenum, jejunum, ileum and colon; assay: as above; type: in vitro ADME, pig; conditions: KBR, 2 h
[10] = system: human intestine; conditions: Ussing chamber; cited from earlier work
[11] = target: T1, P-gp (Sus scrofa, UniProt K7GMM7)
T1 sequence (K7GMM7 1-1248): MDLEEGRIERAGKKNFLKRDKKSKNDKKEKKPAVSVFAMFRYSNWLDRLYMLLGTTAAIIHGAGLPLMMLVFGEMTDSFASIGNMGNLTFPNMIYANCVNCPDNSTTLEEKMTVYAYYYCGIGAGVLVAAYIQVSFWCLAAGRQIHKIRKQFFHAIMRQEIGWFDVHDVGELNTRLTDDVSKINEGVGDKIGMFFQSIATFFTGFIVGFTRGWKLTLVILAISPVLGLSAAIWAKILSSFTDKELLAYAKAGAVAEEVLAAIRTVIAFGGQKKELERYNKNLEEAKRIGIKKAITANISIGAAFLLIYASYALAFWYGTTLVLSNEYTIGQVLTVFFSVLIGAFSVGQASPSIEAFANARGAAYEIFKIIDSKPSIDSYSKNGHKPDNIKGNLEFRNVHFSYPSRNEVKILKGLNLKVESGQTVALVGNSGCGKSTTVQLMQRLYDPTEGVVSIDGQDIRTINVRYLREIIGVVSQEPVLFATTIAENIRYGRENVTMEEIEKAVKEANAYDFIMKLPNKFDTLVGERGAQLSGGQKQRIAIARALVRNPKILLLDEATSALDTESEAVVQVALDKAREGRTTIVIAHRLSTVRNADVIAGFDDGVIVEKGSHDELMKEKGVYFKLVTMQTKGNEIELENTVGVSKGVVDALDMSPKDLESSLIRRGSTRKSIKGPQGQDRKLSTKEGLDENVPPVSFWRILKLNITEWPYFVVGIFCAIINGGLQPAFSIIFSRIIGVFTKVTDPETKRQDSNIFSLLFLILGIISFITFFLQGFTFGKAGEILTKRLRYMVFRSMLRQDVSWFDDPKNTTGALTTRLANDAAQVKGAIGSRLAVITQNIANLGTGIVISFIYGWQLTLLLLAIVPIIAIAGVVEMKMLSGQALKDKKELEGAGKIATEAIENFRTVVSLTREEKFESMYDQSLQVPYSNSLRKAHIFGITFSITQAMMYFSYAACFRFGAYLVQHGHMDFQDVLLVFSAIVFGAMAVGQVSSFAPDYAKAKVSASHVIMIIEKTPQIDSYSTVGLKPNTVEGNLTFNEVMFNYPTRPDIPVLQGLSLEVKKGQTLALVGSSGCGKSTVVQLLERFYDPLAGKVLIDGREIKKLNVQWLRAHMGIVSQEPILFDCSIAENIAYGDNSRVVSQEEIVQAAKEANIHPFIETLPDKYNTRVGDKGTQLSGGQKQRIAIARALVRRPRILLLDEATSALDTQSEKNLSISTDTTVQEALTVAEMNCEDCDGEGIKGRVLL

[12] = target: T1, P-gp; assay: in vitro; conditions: female, Swiss noble, pig, pH 7.4, with verapamil hydrochloride 100 µM in the donor compartment
[13] = KBR buffer, pH 7.4, aqueous buffer

Row | Structure (SMILES) | Peff,human^a In Vivo [1] | QDEP FeSSIF V2 [2] | QDEP FaSSIF V2 [2] | solubility ([3]; FaSSIF V2, pH 6.5, fassif) | solubility ([3]; FeSSIF V2, pH 5.8, fessif) | solubility [3, 13] | Papp at 120 min, 100 µM ([5]; pH 5.8) | Papp at 120 min, 100 µM ([5]; pH 6.5) | Papp at 120 min, 100 µM ([5]; pH 7.4) | QDEP KBR [2] | QPERM FaSSIF V2 [2] | QPERM FeSSIF V2 [2] | QPERM KBR [2] | further results
1 | COc1ccc2cc([C@H](C)C(=O)O)ccc2c1 [Naproxen] | 850 n.a. [31] 10^−6 cm/s | 4.74 ± 1.04% | – | – | – | – | – | – | – | – | – | – | – | Peff,human^b In Vivo [1]: 27–42 [77] 10^−6 cm/s
2 | NS(=O)(=O)c1cc(C(=O)O)c(NCc2ccco2)cc1Cl [Furosemide] | 5 n.a. [31] 10^−6 cm/s | 1.52 ± 0.24% | 2.22 ± 0.17% | – | – | – | – | – | – | – | – | – | – | Peff,human^b In Vivo [1]: 1–1.6 [77] 10^−6 cm/s
3 | CN1C(C(=O)Nc2ccccn2)=C(O)c2ccccc2S1(=O)=O [Piroxicam] | 665 n.a. [31] 10^−6 cm/s | 0.21 ± 0.04% | 5.63 ± 0.26% | 290 ± 20 µg/mL (≈ 0.875 mM) | 60 µg/mL (≈ 0.181 mM) | 430 ± 20 µg/mL (≈ 1.3 mM) | 5.14 ± 0.78 ×10⁻⁶ cm/s | 10.8 ± 3.7 ×10⁻⁶ cm/s | 8.93 ± 2.03 ×10⁻⁶ cm/s | 4.12 ± 0.15% | 2.32 ± 0.79% | 1.13 ± 0.46% | 2.52 ± 0.70% | log P [4]: 3.06
4 | Cc1ncc2n1-c1ccc(Cl)cc1C(c1ccccc1F)=NC2 [Midazolam] | – | – | – | – | – | – | – | – | – | – | – | – | – | Papp at 120 min, 100 µM ([6]; pH 7.4, Papp,pig Ex Vivo (+CLOTR), with clotrimazole 100 µM): 0.46 ± 0.07 ×10⁻⁶ cm/s; Papp at 120 min, 100 µM ([6]; pH 7.4, Papp,pig Ex Vivo (−CLOTR), without clotrimazole): 0.183 ± 0.138 ×10⁻⁶ cm/s; log P [4]: 3.89; Effect of the presence of clotrimazole on Papp,pig ([7]; clotrimazole 100 µM): significantly increased; QDEP (+CLOTR) ([7]; with clotrimazole 100 µM): 7.49 ± 2.50%; QPERM (+CLOTR) ([7]; with clotrimazole 100 µM): 0.18 ± 0.08%; QDEP (−CLOTR) ([7]; without clotrimazole): 8.06 ± 1.33%; QPERM (−CLOTR) ([7]; without clotrimazole): 0.13 ± 0.09%
5 | COCCc1ccc(OCC(O)CNC(C)C)cc1 (racemic) [Metoprolol, (+/−)-Metoprolol] | – | 0.22 ± 0.01% | 0.12 ± 0.03% | 43800 ± 15800 µg/mL (≈ 164 mM) | 381000 ± 33800 µg/mL (≈ 1420 mM) | 298000 ± 13900 µg/mL (≈ 1110 mM) | 5.79 ± 1.38 ×10⁻⁶ cm/s | 7.62 ± 1.41 ×10⁻⁶ cm/s | 10.6 ± 2.92 ×10⁻⁶ cm/s | 0.28 ± 0.04% | 0.89 ± 0.19% | 0.74 ± 0.08% | 0.18 ± 0.05% | Papp at 120 min, 100 µM ([8]; pH 7.4, colon, read-out: Papp,pig Ex Vivo Colon): 17.6 ± 5.41 ×10⁻⁶ cm/s; Papp at 120 min, 100 µM ([8]; pH 7.4, duodenum, read-out: Papp,pig Ex Vivo Duodenum): 0.39 ± 0.16 ×10⁻⁶ cm/s; Papp at 120 min, 100 µM ([8]; pH 7.4, ileum, read-out: Papp,pig Ex Vivo Ileum): 6.87 ± 1.23 ×10⁻⁶ cm/s; Papp at 120 min, 100 µM ([8]; pH 7.4, jejunum, read-out: Papp,pig Ex Vivo Jejunum): 10.6 ± 2.92 ×10⁻⁶ cm/s; QDEP Colon ([9]; colon): 0.02 ± 0.00%; QPERM Colon ([9]; colon): 1.65 ± 0.87 (6) %; QDEP Duodenum ([9]; duodenum): 2.35 ± 0.25%; QPERM Duodenum ([9]; duodenum): 0.14 ± 0.08 (5) %; QDEP Ileum ([9]; ileum): 1.89 ± 0.67%; QPERM Ileum ([9]; ileum): 0.83 ± 0.09 (5) %; QPERM Jejunum ([9]; jejunum): 0.18 ± 0.05 (4) %; Papp,human jejunum [10]: 15.9 ± 3.69 10^−6 cm/s
6 | OCc1ncc2n1-c1ccc(Cl)cc1C(c1ccccc1F)=NC2 [α-hydroxymidazolam] | – | – | – | – | – | – | – | – | – | – | – | – | – | Amount of principal metabolite in the intestinal tissue in the presence of clotrimazole ([7]; parent drug 100 µM, clotrimazole 100 µM): significantly decreased
7 | CNC(=C[N+](=O)[O-])NCCSCc1ccc(CN(C)C)o1 [Ranitidine] | – | – | – | 15900 ± 1470 µg/mL (≈ 50.5 mM) | 808000 ± 70500 µg/mL (≈ 2570 mM) | 19600 ± 2780 µg/mL (≈ 62.5 mM) | – | – | – | – | – | – | – | Effect of the presence of verapamil on Papp,pig in the ileum ([11]; ileum, verapamil 100 µM, Student's t-test): significantly increased; QDEP Ileum (+VER) ([11]; ileum, with verapamil 100 µM): 7.91 ± 0.74%; QPERM Ileum (+VER) ([11]; ileum, with verapamil 100 µM): 0.25 ± 0.03 (6) %; QDEP Ileum (−VER) ([11]; ileum, without verapamil): 1.10 ± 0.59%; QPERM Ileum (−VER) ([11]; ileum, without verapamil): 0.55 ± 0.35 (4) %; Difference in Papp,pig across the jejunum in the presence or absence of verapamil ([11]; jejunum, verapamil 100 µM): No statistically significant difference; QDEP Jejunum (+VER) ([11]; jejunum, with verapamil 100 µM): 5.47 ± 0.75%; QPERM Jejunum (+VER) ([11]; jejunum, with verapamil 100 µM): 0.23 ± 0.15 (5) %; QDEP Jejunum (−VER) ([11]; jejunum, without verapamil): 1.32 ± 0.31%; QPERM Jejunum (−VER) ([11]; jejunum, without verapamil): 0.67 ± 0.12 (6) %; Papp at 120 min, 100 µM [12]: 4.92 ×10⁻⁶ cm/s
8 | NC(=O)N1c2ccccc2C=Cc2ccccc21 [Carbamazepine] | 430 n.a. [31] 10^−6 cm/s | 3.45 ± 0.52% | – | 320 ± 10 µg/mL (≈ 1.35 mM) | 730 ± 10 µg/mL (≈ 3.09 mM) | 200 ± 20 µg/mL (≈ 0.846 mM) | 4.26 ± 0.96 ×10⁻⁶ cm/s | 5.97 ± 0.52 ×10⁻⁶ cm/s | 7.81 ± 5.69 ×10⁻⁶ cm/s | 1.44 ± 0.16% | – | 0.58 ± 0.22% | 2.39 ± 0.42% | –
9 | NS(=O)(=O)c1cc2c(cc1Cl)NCNS2(=O)=O [Hydrochlorothiazide] | 4 n.a. [31] 10^−6 cm/s | 0.74 ± 0.09% | 0.22 ± 0.11% | – | – | – | 1.37 ± 0.53 ×10⁻⁶ cm/s | 0.2 ± 0.25 ×10⁻⁶ cm/s | 2.88 ± 2.84 ×10⁻⁶ cm/s | – | 0.11 ± 0.05% | 0.23 ± 0.08% | – | –
